Measured values reported in US6251897A, “6-phenyltetrahydro-1,3-oxazin-2-one derivative and pharmaceutical composition containing the same” (Nikken Chemicals Co., LTD, priority 1996, dated 2001).

Tested on: antigen-induced bronchospasm in guinea pig
Experiment: Inhibitory effect on antigen-induced bronchospasm (Konzett-Roessler, ovalbumin-sensitized)
Format: in vivo, guinea pig (Hartley male)
Conditions: Cavia porcellus; intravenous, 10 minutes before antigen (0.2 mg/kg OA i.v.); read-out: Action for suppressing antigen-induced bronchospasms ED50
Experimental: A Hartley male guinea pig was sensitized by intramuscular administration of […] Ovalbumin (OA) on first day and fourth day, and used after 24th day. A trachial canula was introduced in the guinea pig anesthetized with pentobarbital and artificial ventilation was performed 25 to 29 days after the first sensitization. The overflow of the ventilation was measured by the Konzett-Roessler method while 0.2 mg/kg OA were administered intravenously. The test compound was dissolved in polyethylene glycol 400 and intravenously administered 10 minutes before administration of the antigens.

SMILES | ED50 [mg/kg]
COc1ccc(C2CCNC(=O)O2)cc1OCC1CC1 (stereo not drawn) [Compound No. 4, 6-(3-cyclopropylmethyloxy-4-methoxyphenyl)-3,4,5,6-tetrahydro-2H-1,3-oxazin-2-one] | 0.23
COc1ccc(C2(C)CCNC(=O)O2)cc1OC1CCCC1 (stereo not drawn) [Compound No. 6, 6-(3-cyclopentyloxy-4-methoxyphenyl)-6-methyl-3,4,5,6-tetrahydro-2H-1,3-oxazin-2-one] | 0.3
COc1ccc(C2CCN(Cc3ccncc3)C(=O)O2)cc1OC1CCCC1 (stereo not drawn) [Compound No. 14, 6-(3-cyclopentyloxy-4-methoxyphenyl)-3-(4-pyridylmethyl)-3,4,5,6-tetrahydro-2H-1,3-oxazin-2-one] | 2.4
COc1ccc(C2CCN(Cc3ccccn3)C(=O)O2)cc1OC1CCCC1 (stereo not drawn) [Compound No. 16] | 2.1

Tested on: Type IV PDE
Experiment: PDE inhibitory activity, type IV isozyme (3H-cAMP hydrolysis)
Format: biochemical
Conditions: partially purified from rat neutrophils, 30° C., 30 minutes
Experimental: Type I, III, IV, and V PDE isozymes were prepared to study the PDE inhibitory activities and selectivities with the compound of the invention [Trends Pharmacol. Sci., 12, 19-27 (1992)]. Type I PDE was purchased from Sigma Corp. Type III, IV, and V PDE isozymes were partially purified from rats platelets (Type III and V) or neutrophils (Type IV). Each enzyme source was homogenized in a buffer (pH 6.5) containing 20 mM bisTris, 2 mM EDTA (ethylenediamine tetraacetate), 0.1 mM PMSF (phenylmethylsulfonyl fluoride), 5 mM 2-mercaptoethanol, 0.001 mM pepstatin, and 0.01 mM leupeptin and was centrifuged at 30,000×G for 30 minutes to obtain a supernatant, which was applied to an ion exchange column (Q-sepharose First Flow, Pharmacia Corp.) and was eluted with 0 to 1M sodium acetate. Partially purified isozymes were identified by observing the effects of conventional inhibitors.
Each PDE isozyme and the test compound dissolved in DMSO (dimethyl sulfoxide) were added to 50 mM Tris-HCl buffer containing 5 mM magnesium chloride. ^3 H-cAMP (for type III and IV PDE) or ^3 H-cGMP (for type I and V PDE) were added as substrates and were reacted at 30° C. for 30 minutes. The reaction was terminated by placing the test tube in boiling water of 100° C. for 5 minutes. The nucleotides formed by PDE were broken down by 5'-nucleotidase to ^3 H-adenosine or ^3 H-guanosine. The unreacted substrate and reaction product were separated through an ion-exchange column (QAE sephadex, Pharmacia Corp.) The eluted ^3 H-nucleoside was measured for its radioactivity by a liquid scintillation counter. The inhibiting activities of the compound of the present invention are shown by the IC50 value (M). Further, the inhibitory activities of the test samples against Type I, III, and V are 1/10 or less than that against type IV.

SMILES | IC50 [µM]
COc1ccc(C2CCNC(=O)O2)cc1OCC1CC1 (stereo not drawn) [Compound No. 4, 6-(3-cyclopropylmethyloxy-4-methoxyphenyl)-3,4,5,6-tetrahydro-2H-1,3-oxazin-2-one] | 3.2
COc1ccc(C2(C)CCNC(=O)O2)cc1OC1CCCC1 (stereo not drawn) [Compound No. 6, 6-(3-cyclopentyloxy-4-methoxyphenyl)-6-methyl-3,4,5,6-tetrahydro-2H-1,3-oxazin-2-one] | 1.1
COc1ccc(C2CCN(Cc3ccncc3)C(=O)O2)cc1OC1CCCC1 (stereo not drawn) [Compound No. 14, 6-(3-cyclopentyloxy-4-methoxyphenyl)-3-(4-pyridylmethyl)-3,4,5,6-tetrahydro-2H-1,3-oxazin-2-one] | 6.1
COc1ccc(C2CCN(Cc3ccccn3)C(=O)O2)cc1OC1CCCC1 (stereo not drawn) [Compound No. 16] | 5.5
COc1ccc(C2CCNC(=O)O2)cc1OC1c2ccccc2CCc2ccccc21 (stereo not drawn) [Compound No. 58, 6-[3-(10,11-dihydro-5H-dibenzo[a,d]cyclohepten-5-yloxy)-4-methoxyphenyl]-3,4,5,6-tetrahydro-2H-1,3-oxazin-2-one] | 9.4
COc1ccc(C2CCN(C)C(=O)O2)cc1OC1c2ccccc2CCc2ccccc21 (stereo not drawn) [Compound No. 59, 6-[3-(10,11-dihydro-5H-dibenzo[a,d]cyclohepten-5-yloxy)-4-methoxyphenyl]-3-methyl-3,4,5,6-tetrahydro-2H-1,3-oxazin-2-one] | 27
COc1ccc(C2CCNC(=O)O2)cc1OCCCN1CCN(Cc2ccccc2)CC1 (stereo not drawn) [Compound No. 60, 6-[3-[3-(4-benzyl-1-piperazinyl)propoxy]-4-methoxyphenyl]-3,4,5,6-tetrahydro-2H-1,3-oxazin-2-one] | 52
COc1ccc(C2CCN(C)C(=O)O2)cc1OCC1CCC1 (stereo not drawn) [Compound No. 62, 6-(3-cyclobutylmethyloxy-4-methoxyphenyl)-3-methyl-3,4,5,6-tetrahydro-2H-1,3-oxazin-2-one] | 3.3
COc1ccc(C2CCNC(=O)O2)cc1OCC1(C)CC1 (stereo not drawn) [Compound No. 63, 6-[4-methoxy-3-[(1-methylcyclopropyl)methyloxy]phenyl]-3,4,5,6-tetrahydro-2H-1,3-oxazin-2-one] | 3.4
COc1ccc(C2CCN(C)C(=O)O2)cc1OCC1(C)CC1 (stereo not drawn) [Compound No. 64, 6-[4-methoxy-3-[(1-methylcyclopropyl)methyloxy]phenyl]-3-methyl-3,4,5,6-tetrahydro-2H-1,3-oxazin-2-one] | 4.6
COc1ccc(C2CCNC(=O)O2)cc1OCCc1cccc2ccccc12 (stereo not drawn) [Compound No. 67, 6-[4-methoxy-3-[2-(1-naphthyl)ethoxy]phenyl]-3,4,5,6-tetrahydro-2H-1,3-oxazin-2-one] | 1.1
COc1ccc(C2CCN(C)C(=O)O2)cc1OCCc1cccc2ccccc12 (stereo not drawn) [Compound No. 68, 6-[4-methoxy-3-[2-(1-naphthyl)ethoxy]phenyl]-3-methyl-3,4,5,6-tetrahydro-2H-1,3-oxazin-2-one] | 2.6
CCC(CC)COc1cc(C2CCNC(=O)O2)ccc1OC (stereo not drawn) [Compound No. 69, 6-[3-(2-ethylbutoxy)-4-methoxyphenyl]-3,4,5,6-tetrahydro-2H-1,3-oxazin-2-one] | 5
CCC(CC)COc1cc(C2CCN(C)C(=O)O2)ccc1OC (stereo not drawn) [Compound No. 70, 6-[3-(2-ethylbutoxy)-4-methoxyphenyl]-3-methyl-3,4,5,6-tetrahydro-2H-1,3-oxazin-2-one] | 3.5
COc1ccc(C2CCNC(=O)O2)cc1OCCc1scnc1C (stereo not drawn) [Compound No. 72, 6-[4-methoxy-3-[2-(4-methyl-5-thiazolyl)ethoxy]phenyl]-3,4,5,6-tetrahydro-2H-1,3-oxazin-2-one] | 8.3
COc1ccc(C2CCNC(=O)O2)cc1OCCc1ccc(F)cc1 (stereo not drawn) [Compound No. 74, 6-[3-[2-(4-fluorophenyl)ethoxy]-4-methoxyphenyl]-3,4,5,6-tetrahydro-2H-1,3-oxazin-2-one] | 1.3
COc1ccc(C2CCN(C)C(=O)O2)cc1OCCc1ccc(F)cc1 (stereo not drawn) [Compound No. 75, 6-[3-[2-(4-fluorophenyl)ethoxy]-4-methoxyphenyl]-3-methyl-3,4,5,6-tetrahydro-2H-1,3-oxazin-2-one] | 1.8
COc1ccc(C2CCN(C)C(=O)O2)cc1OCC1CCCC1 (stereo not drawn) [Compound No. 77, 6-(3-cyclopentylmethyloxy-4-methoxyphenyl)-3-methyl-3,4,5,6-tetrahydro-2H-1,3-oxazin-2-one] | 3.3
COc1ccc(C2CCNC(=O)O2)cc1OC1(C)CCCC1 (stereo not drawn) [Compound No. 80, 6-[4-methoxy-3-(1-methylcyclopentyloxy)phenyl]-3,4,5,6-tetrahydro-2H-1,3-oxazin-2-one] | 1.5
COc1ccc(C2CCNC(=O)O2)cc1OCCOCc1ccccc1 (stereo not drawn) [Compound No. 83, 6-[3-(2-benzyloxyethoxy)-4-methoxyphenyl]-3,4,5,6-tetrahydro-2H-1,3-oxazin-2-one] | 3.4
COc1ccc(C2CCN(C)C(=O)O2)cc1OCCOCc1ccccc1 (stereo not drawn) [Compound No. 84, 6-[3-(2-benzyloxyethoxy)-4-methoxyphenyl]-3-methyl-3,4,5,6-tetrahydro-2H-1,3-oxazin-2-one] | 3.1
COc1ccc(C2OC(=O)NCC2(C)C)cc1OC1CCCC1 (stereo not drawn) [Compound No. 85, 6-(3-cyclopentyloxy-4-methoxyphenyl)-5,5-dimethyl-3,4,5,6-tetrahydro-2H-1,3-oxazin-2-one] | 0.78
COc1ccc(C2OC(=O)N(C)CC2(C)C)cc1OC1CCCC1 (stereo not drawn) [Compound No. 86, 6-(3-cyclopentyloxy-4-methoxyphenyl)-3,5,5-trimethyl-3,4,5,6-tetrahydro-2H-1,3-oxazin-2-one] | 0.86
COc1ccc(C2OC(=O)NCC2(C)C)cc1OC1Cc2ccccc2C1 (stereo not drawn) [Compound No. 87, 5,5-dimethyl-6-[3-(2-indanyloxy)-4-methoxyphenyl]-3,4,5,6-tetrahydro-2H-1,3-oxazin-2-one] | 0.088
COc1ccc(C2OC(=O)N(C)CC2(C)C)cc1OC1Cc2ccccc2C1 (stereo not drawn) [Compound No. 88, 6-[3-(2-indanyloxy)-4-methoxyphenyl]-3,5,5-trimethyl-3,4,5,6-tetrahydro-2H-1,3-oxazin-2-one] | 0.19
COc1ccc(C2CCNC(=O)O2)cc1OC1CCN(Cc2ccccc2)CC1 (stereo not drawn) [Compound No. 89, 6-[3-(1-benzyl-4-piperidyloxy)-4-methoxyphenyl]-3,4,5,6-tetrahydro-2H-1,3-oxazin-2-one] | 35
COc1ccc(C2CCNC(=O)O2)cc1OCCOCC1CC1 (stereo not drawn) [Compound No. 90, 6-[3-[2-(cyclopropylmethyloxy)ethoxy]-4-methoxyphenyl]-3,4,5,6-tetrahydro-2H-1,3-oxazin-2-one] | 1.9
COc1ccc(C2CCNC(=O)O2)cc1OC1CCOC1 (stereo not drawn) [Compound No. 93, 6-[3-(3-tetrahydrofuryloxy)-4-methoxyphenyl]-3,4,5,6-tetrahydro-2H-1,3-oxazin-2-one] | 3.7
COc1ccc(C2CCN(C)C(=O)O2)cc1OCCc1scnc1C (stereo not drawn) [compound 73, 6-[4-methoxy-3-[2-(4-methyl-5-thiazolyl)ethoxy]phenyl]-3-methyl-3,4,5,6-tetrahydro-2H-1,3-oxazin-2-one] | 7.3
